Experimental findings from ChEMBL document CHEMBL1201862, “PubChem BioAssay data set” (2004) are described below.

Molecules are shown by their SMILES.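 Where inhibition never reached the appropriate level, the endpoint shown equals the highest concentration tested. Otherwise, values were interpolated linearly from a five-concentration, 48-hour dose response in 96-well plates. Here, GI50 denotes the concentration required for 50% inhibition of growth.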 The source made the active and inactive calls. Cut-off read from the data, not from the text of the source: active = GI50 up to about 1.1 µM and inactive = higher. Where a SMILES comes first, the peptide text is derived from it. The star is where a group is joined. Boc = CC(C)(C)OC(=O)*

Some test systems named below: MDA-N; UACC-257; NCI-H460; PC-3; EKVX; LOX IMVI; OVCAR-8; TK-10; SK-MEL-5; RPMI-8226; NCI/ADR-RES; MCF7; OVCAR-4; ACHN; SK-MEL-28; OVCAR-3; HOP-92; SF-539; K562; HCT-116.
What all share (experiment): inhibition of tumour cell growth, NCI panel, 48 h

Consider `C[C@@H]1C[C@@H](O)[C@@]2(O)C13CC(=O)OC(C3)[C@@H](C)[C@@]2(C)CO` (stereo not given in full), for which the GI50 with MDA-N, with UACC-257, with NCI-H460, in the test on PC-3, with EKVX and in the test with LOX IMVI was > 100 µM (inactive) in each case. Further, the GI50 in the test on OVCAR-8, in the test on TK-10, with SK-MEL-5, with RPMI-8226, with NCI/ADR-RES and in the test on MCF7 was > 100 µM (inactive) in each case. The GI50 in the test on OVCAR-4, with ACHN, in the test with SK-MEL-28, with OVCAR-3, in the test on HOP-92 and with SF-539 was > 100 µM (inactive) in each case. Moreover, the GI50 with K562 and with HCT-116 was > 100 µM (inactive) each time.
`COC(=O)c1ccc(/C=C/C2=CC(=O)C=CC2=O)cc1`: the GI50 is 41.7 µM (inactive) in the test with MDA-N; 17.1 µM (inactive) in the test on UACC-257; 23.9 µM (inactive) in the test with NCI-H460; 12.8 µM (inactive) with PC-3; 19.1 µM (inactive) in the test with EKVX; 6.14 µM (inactive) in the test on LOX IMVI. Further, the GI50 with OVCAR-8 is 16.8 µM (inactive); with TK-10, 21.2 µM (inactive); in the test on SK-MEL-5, 20.8 µM (inactive); in the test with RPMI-8226 it was 1.01 µM (active); with NCI/ADR-RES, 22.4 µM (inactive); in the test on MCF7, 8.57 µM (inactive). In addition, the GI50 in the test with OVCAR-4 is 19.9 µM (inactive); with ACHN, 14.7 µM (inactive); in the test with SK-MEL-28 it was 20.8 µM (inactive); with OVCAR-3, 9.73 µM (inactive); with HOP-92, 13.5 µM (inactive); in the test on SF-539, 10.5 µM (inactive). In addition, the GI50 in the test with K562 is 2.43 µM (inactive); in the test on HCT-116 it was 15.1 µM (inactive).
For `N#CCCN(CCCN(C(=O)N(c1ccccc1)c1ccccc1)c1ccccc1)C(=O)Nc1ccccc1`, the GI50 in the test on MDA-N is > 100 µM (inactive); in the test with UACC-257, 74 µM (inactive); in the test with NCI-H460 it was 40 µM (inactive); with PC-3 it was 18.7 µM (inactive); in the test on EKVX it was 35.6 µM (inactive); in the test on LOX IMVI, > 100 µM (inactive). Further, the GI50 in the test on OVCAR-8 was 21.5 µM (inactive); in the test on TK-10, > 100 µM (inactive); with SK-MEL-5, 24.9 µM (inactive); in the test on RPMI-8226 it was 94 µM (inactive); with NCI/ADR-RES, 30.1 µM (inactive); in the test with MCF7, 18.2 µM (inactive). The GI50 in the test on OVCAR-4 was 95.1 µM (inactive); with ACHN it was 93.3 µM (inactive); with SK-MEL-28 it was > 100 µM (inactive); in the test on OVCAR-3, > 100 µM (inactive); with HOP-92 it was > 100 µM (inactive); in the test with SF-539 it was > 100 µM (inactive). In addition, the GI50 was 28.6 µM (inactive) in the test on K562 and 29.6 µM (inactive) in the test with HCT-116.
`CCOC(=O)C(CC(C)C)NC(=O)C(Cc1ccccc1)NC(=O)CNC(=O)OC(C)(C)C` (stereo not drawn) (Boc-Gly-Phe-Leu-OEt; configuration not given here): the GI50 is 14.7 µM (inactive) in the test with MDA-N; 19.7 µM (inactive) with UACC-257; 12.1 µM (inactive) in the test on NCI-H460; 20 µM (inactive) in the test with PC-3; 22.3 µM (inactive) in the test on EKVX; 18.2 µM (inactive) in the test on LOX IMVI. For the same compound, the GI50 is 21.7 µM (inactive) with OVCAR-8; 31 µM (inactive) in the test on TK-10; 20.8 µM (inactive) in the test with SK-MEL-5; 20.9 µM (inactive) in the test with RPMI-8226; 80.2 µM (inactive) in the test with NCI/ADR-RES; 2.44 µM (inactive) in the test on MCF7. In addition, the GI50 with OVCAR-4 is 36.9 µM (inactive); in the test with ACHN, 17.1 µM (inactive); in the test on SK-MEL-28, 16.6 µM (inactive); with OVCAR-3 it was 17.2 µM (inactive); in the test with HOP-92, 25.2 µM (inactive); with SF-539, 13.5 µM (inactive). Moreover, the GI50 in the test with K562 is 19 µM (inactive); in the test with HCT-116, 17.9 µM (inactive).
As for `C=C(Cl)c1c(OC)cccc1OCc1ccccc1`, the GI50 in the test on MDA-N was 42 µM (inactive); in the test with UACC-257, 20 µM (inactive); in the test with NCI-H460, > 100 µM (inactive); in the test on PC-3, > 100 µM (inactive); in the test with EKVX it was 59.4 µM (inactive); with LOX IMVI it was 69.7 µM (inactive). Besides, the GI50 is > 100 µM (inactive) in the test with OVCAR-8; > 100 µM (inactive) in the test with TK-10; 34.4 µM (inactive) with SK-MEL-5; 43 µM (inactive) in the test with RPMI-8226; > 100 µM (inactive) in the test on NCI/ADR-RES; 58.5 µM (inactive) with MCF7. In addition, the GI50 is 98.9 µM (inactive) in the test with OVCAR-4; 90.8 µM (inactive) in the test with ACHN; > 100 µM (inactive) with SK-MEL-28; > 100 µM (inactive) in the test with OVCAR-3; 22.2 µM (inactive) in the test with HOP-92; > 100 µM (inactive) in the test with SF-539. Further, the GI50 was 48.2 µM (inactive) in the test with K562 and 56.8 µM (inactive) in the test on HCT-116.
As to `CCC(C)C(=O)OC1C(=O)OC2CC3C(C)=CC(=O)C(O)C3(C)C3C4(O)OCC23C1C(C)C4O` (stereo not given), the GI50 with MDA-N is < 0.0169 µM (active); in the test on UACC-257 it was 0.0223 µM (active); in the test with NCI-H460, < 0.014 µM (active); in the test on PC-3, < 0.0199 µM (active); with EKVX it was 0.264 µM (active); in the test on LOX IMVI, < 0.01 µM (active). The GI50 in the test with OVCAR-8 is < 0.01 µM (active); in the test with TK-10 it was < 0.0188 µM (active); in the test with SK-MEL-5 it was < 0.0108 µM (active); in the test on RPMI-8226, < 0.0111 µM (active); in the test on NCI/ADR-RES, 0.347 µM (active); in the test with MCF7, < 0.01 µM (active). Also, the GI50 in the test with OVCAR-4 is 0.0314 µM (active); in the test with ACHN, < 0.0171 µM (active); in the test on SK-MEL-28 it was < 0.0164 µM (active); with OVCAR-3 it was < 0.0199 µM (active); with HOP-92, 0.0208 µM (active); in the test with SF-539, < 0.01 µM (active). Moreover, the GI50 in the test with K562 and with HCT-116 was < 0.01 µM (active) throughout.
Regarding `CCCCCCCCCCCCCCCCOc1ccc(/C=C/C2=[N+](CCCl)CCO2)cc1`, the GI50 with MDA-N was > 100 µM (inactive); with UACC-257, > 100 µM (inactive); in the test on NCI-H460, 90.4 µM (inactive); with PC-3, > 100 µM (inactive); in the test on EKVX, > 100 µM (inactive); in the test on LOX IMVI, > 100 µM (inactive). Further, the GI50 with OVCAR-8 is 42 µM (inactive); in the test with TK-10, 47.1 µM (inactive); with SK-MEL-5, > 100 µM (inactive); in the test on RPMI-8226, > 100 µM (inactive); in the test on NCI/ADR-RES it was 56.1 µM (inactive); in the test on MCF7, > 100 µM (inactive). In addition, the GI50 in the test on OVCAR-4, with ACHN, in the test with SK-MEL-28, in the test with OVCAR-3, in the test on HOP-92 and in the test with SF-539 was > 100 µM (inactive) in each case. Further, the figures for the GI50 in the test on K562 and with HCT-116 were 77.3 µM (inactive) and 25.5 µM (inactive), respectively.
Turning to `CCOC(=O)NC(Nc1ccc(S(=O)(=O)Nc2ccc(OC)nn2)cc1)(C(F)(F)F)C(F)(F)F`, the GI50 was 42 µM (inactive) in the test on MDA-N; 33.1 µM (inactive) with UACC-257; 41.6 µM (inactive) in the test with NCI-H460; 21.3 µM (inactive) in the test with PC-3; 37 µM (inactive) in the test with EKVX; 29.5 µM (inactive) in the test on LOX IMVI. Besides, the GI50 in the test with OVCAR-8 was 38.2 µM (inactive); with TK-10, 27.7 µM (inactive); in the test on SK-MEL-5, 17.8 µM (inactive); with RPMI-8226, 20.6 µM (inactive); in the test on NCI/ADR-RES, 23.9 µM (inactive); with MCF7, 36.4 µM (inactive). Moreover, the GI50 with OVCAR-4 is 26.7 µM (inactive); in the test on ACHN it was 27 µM (inactive); with SK-MEL-28, 24.9 µM (inactive); with OVCAR-3 it was 20.7 µM (inactive); in the test on HOP-92, 28.5 µM (inactive); with SF-539, 20.6 µM (inactive). Also, the results for the GI50 in the test on K562 and in the test on HCT-116 were 32.2 µM (inactive) and 22.6 µM (inactive), respectively.
For `C[C@H]1[C@H](C)N1CC(O)Cn1ccnc1[N+](=O)[O-]` (stereo not given in full), the GI50 with MDA-N, in the test with UACC-257, in the test with NCI-H460, with PC-3, in the test with EKVX and in the test on LOX IMVI was > 100 µM (inactive) each time. For the same compound, the GI50 in the test on OVCAR-8, in the test on TK-10, in the test with SK-MEL-5, in the test on RPMI-8226, in the test with NCI/ADR-RES and with MCF7 was > 100 µM (inactive) each time. In addition, the GI50 is > 100 µM (inactive) in the test on OVCAR-4; > 100 µM (inactive) in the test with ACHN; > 100 µM (inactive) with SK-MEL-28; > 100 µM (inactive) in the test with OVCAR-3; 1 µM (active) in the test on HOP-92; > 100 µM (inactive) in the test with SF-539. For the same compound, the GI50 in the test on K562 and with HCT-116 was > 100 µM (inactive) throughout.
For `CO[C@]12CC(=O)C3(C(C[C@H]4CC5CC=C6C[C@@H](OC(C)=O)CC[C@]6(OC(C)=O)C5C[C@@]43C)C1)C1C[C@H]3[C@@H]4CC=C5C[C@@H](OC(C)=O)CC[C@]5(OC(C)=O)[C@H]4CC[C@]3(C)C12` (stereo not given in full), the GI50 was 13.1 µM (inactive) with MDA-N; 23.6 µM (inactive) in the test with UACC-257; 16.3 µM (inactive) in the test with NCI-H460; 10.7 µM (inactive) in the test on PC-3; 21.4 µM (inactive) in the test on EKVX; 18.9 µM (inactive) in the test with LOX IMVI. Besides, the GI50 was 24.1 µM (inactive) in the test with OVCAR-8; 43.2 µM (inactive) in the test on TK-10; 3.53 µM (inactive) with SK-MEL-5; 7.18 µM (inactive) with RPMI-8226; 14 µM (inactive) with NCI/ADR-RES; 17.3 µM (inactive) in the test on MCF7. Also, the GI50 was 4.5 µM (inactive) in the test with OVCAR-4; 22.9 µM (inactive) in the test on ACHN; 30 µM (inactive) in the test on SK-MEL-28; 19.7 µM (inactive) in the test with OVCAR-3; 18.7 µM (inactive) in the test on HOP-92; 19.6 µM (inactive) with SF-539. The GI50 in the test on K562 is 8.85 µM (inactive); with HCT-116, 6.55 µM (inactive).
